Values of other authors in patent US20210393545A1, “NATURAL PRODUCT COMPOSITION FOR STIMULATING HAIR GROWTH” (priority 2018, published 2021).

Key:
[1] = biological target: T1, OR2AT4 (Homo sapiens, UniProt A6NND4); conditions: human hair follicles ex vivo
T1 construct: from tissue; host or cells: human hair follicles (outer root sheath epithelium), ex vivo
T1 sequence (A6NND4 1-320): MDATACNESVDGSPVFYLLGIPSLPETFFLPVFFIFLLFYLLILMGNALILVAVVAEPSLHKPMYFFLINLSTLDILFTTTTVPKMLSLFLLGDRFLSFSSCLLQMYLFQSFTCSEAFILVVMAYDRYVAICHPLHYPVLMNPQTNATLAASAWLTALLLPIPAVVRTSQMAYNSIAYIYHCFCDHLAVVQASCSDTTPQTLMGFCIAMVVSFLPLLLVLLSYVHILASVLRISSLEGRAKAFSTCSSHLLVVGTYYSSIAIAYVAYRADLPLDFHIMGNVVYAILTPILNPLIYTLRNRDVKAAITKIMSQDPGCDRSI

[2] = system: testosterone 5 alpha reductase; conditions: reported in the literature

| Compound | apoptosis [1] | human hair growth ex vivo [1] | production of IGF-1 [1] | 5 alpha reductase activity [2] |
| --- | --- | --- | --- | --- |
| CC1=CCC(CCC(C)C(C)O)C1(C)C (stereo not shown) [Sandalore®, 3-methyl-5(2,2,3-Trimethylcyclepent-3-en-1-yl) pentan-2-ol] | decreasing apoptosis | prolongs human hair growth ex vivo | increasing production of the anagen-prolonging growth factor IGF-1 | – |
| CC(C)c1cc2c(c(O)c1O)[C@@]1(C(=O)O)CCCC(C)(C)[C@@H]1CC2 [carnosic acid] | – | – | – | active ingredient in suppressing 5 alpha reductase activity |
